Measurements published in ChEMBL document CHEMBL5042500 (J Med Chem, 2022).

Tests used:
[1] = molecular target: T1, Serine/threonine-protein kinase Sgk1 (Homo sapiens, UniProt O00141); assay: Inhibition of recombinant human SGK1 expressed in baculovirus expression system using 5-carboxyfluorescein -RPRAATF-NH2 as substrate preincubated for 30 mins followed by substrate addition in presence of 10 uM ATP and measured after 60 mins by microfluidics assay
T1 sequence (O00141 whole entry): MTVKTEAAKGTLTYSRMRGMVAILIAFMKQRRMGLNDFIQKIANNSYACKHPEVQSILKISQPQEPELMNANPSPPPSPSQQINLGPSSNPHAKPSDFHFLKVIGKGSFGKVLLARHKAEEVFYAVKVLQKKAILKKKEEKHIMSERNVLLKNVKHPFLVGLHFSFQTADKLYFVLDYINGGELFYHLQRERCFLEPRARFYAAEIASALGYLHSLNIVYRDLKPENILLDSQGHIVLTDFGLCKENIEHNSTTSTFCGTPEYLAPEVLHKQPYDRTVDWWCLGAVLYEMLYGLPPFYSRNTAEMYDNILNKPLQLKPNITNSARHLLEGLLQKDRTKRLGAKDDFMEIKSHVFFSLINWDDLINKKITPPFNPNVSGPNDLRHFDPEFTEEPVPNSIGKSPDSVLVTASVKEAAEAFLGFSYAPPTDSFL

[2] = molecular target: T1, Serine/threonine-protein kinase Sgk1; assay: Inhibition of recombinant human SGK1 expressed in baculovirus expression system using 5-carboxyfluorescein -RPRAATF-NH2 as substrate preincubated for 30 mins followed by substrate addition in presence of 500 uM ATP and measured after 60 mins by microfluidics assay

IC50 [1]	IC50 [2]	SMILES
6 nM	–	CCN1CCCC(Oc2nc(-c3ccc(NS(=O)(=O)c4cc(Cl)ccc4F)cc3)nc3[nH]nc(C)c23)C1 (stereo unspecified)
1 nM	107 nM	O=C(NCc1ncn[nH]1)c1cc(-c2ccc(NS(=O)(=O)c3cccc(Cl)c3Cl)cc2)nc2[nH]ncc12
< 1 nM	21 nM	CN1CCC(NC(=O)c2cc(-c3ccc(NS(=O)(=O)c4cccc(Cl)c4Cl)cc3)nc3[nH]ncc23)C1 (racemic)
3 nM	609 nM	O=C(NCCn1cnnc1)c1cc(-c2ccc(NS(=O)(=O)c3cccc(Cl)c3Cl)cc2)nc2[nH]ncc12
1 nM	1 nM	Cc1n[nH]c2nc(-c3ccc(NS(=O)(=O)c4cc(Cl)ccc4F)cc3)nc(OC3CCCNC3)c12 (stereo unspecified)
1 nM	1 nM	Cc1n[nH]c2nc(-c3ccc(NS(=O)(=O)c4cc(Cl)ccc4F)cc3)nc(OC3CCNCC3)c12
5 nM	18 nM	Cc1n[nH]c2nc(-c3ccc(NS(=O)(=O)c4cc(Cl)ccc4F)cc3)nc(OC3CCC(=O)CC3)c12
109 nM	1270 nM	O=C(NCc1nncs1)c1cc(-c2ccc(NS(=O)(=O)c3cccc(Cl)c3Cl)cc2)nc2[nH]ncc12
1 nM	236 nM	NC(=O)c1cc(-c2ccc(NS(=O)(=O)c3cccc(Cl)c3Cl)cc2)nc2[nH]ncc12
–	633 nM	CN(C)CCCNC(=O)c1cc(-c2ccc(NS(=O)(=O)c3cccc(Cl)c3Cl)cc2)nc2[nH]ncc12
4 nM	929 nM	CNC(=O)c1cc(-c2ccc(NS(=O)(=O)c3cccc(Cl)c3Cl)cc2)nc2[nH]ncc12
5 nM	14 nM	Cc1n[nH]c2nc(-c3ccc(NS(=O)(=O)c4cc(Cl)ccc4F)cc3)nc(OC3CCOCC3)c12
10 nM	246 nM	O=C(NCCc1cc[nH]n1)c1cc(-c2ccc(NS(=O)(=O)c3cccc(Cl)c3Cl)cc2)nc2[nH]ncc12
15 nM	438 nM	Cc1n[nH]c2nc(-c3ccc(NS(=O)(=O)c4cc(Cl)ccc4F)cc3)nc(OCCC(=O)N(C)C)c12
6 nM	610 nM	O=C(NC1CCN(C2CC2)C1)c1cc(-c2ccc(NS(=O)(=O)c3cccc(Cl)c3Cl)cc2)nc2[nH]ncc12 (racemic)
1 nM	1 nM	Cc1n[nH]c2nc(-c3ccc(NS(=O)(=O)c4cc(Cl)ccc4F)cc3)nc(OCC3CN(C(C)C)C3)c12
68 nM	17600 nM	CC(C)NC(=O)c1cc(-c2ccc(NS(=O)(=O)c3cccc(Cl)c3Cl)cc2)nc2[nH]ncc12
1 nM	2 nM	Cc1n[nH]c2nc(-c3ccc(NS(=O)(=O)c4cc(Cl)ccc4F)cc3)nc(OCC(CO)CO)c12
2 nM	1280 nM	O=C(c1cc(-c2ccc(NS(=O)(=O)c3cccc(Cl)c3Cl)cc2)nc2[nH]ncc12)N1CCNCC1
2 nM	4 nM	CCN1CCC(Oc2nc(-c3ccc(NS(=O)(=O)c4cc(Cl)ccc4F)cc3)nc3[nH]nc(C)c23)CC1
3 nM	4 nM	Cc1n[nH]c2nc(-c3ccc(NS(=O)(=O)c4cc(Cl)ccc4F)cc3)nc(OC3CC(C)(C)NC(C)(C)C3)c12
< 1 nM	< 1 nM	O=C(N[C@@H]1CCNC1)c1cc(-c2ccc(NS(=O)(=O)c3cccc(Cl)c3Cl)cc2)nc2[nH]ncc12
< 1 nM	128 nM	O=C(NCc1ncc[nH]1)c1cc(-c2ccc(NS(=O)(=O)c3cccc(Cl)c3Cl)cc2)nc2[nH]ncc12
4 nM	813 nM	O=C(NCc1nn[nH]n1)c1cc(-c2ccc(NS(=O)(=O)c3cccc(Cl)c3Cl)cc2)nc2[nH]ncc12
3 nM	5 nM	COCCN1CCC(Oc2nc(-c3ccc(NS(=O)(=O)c4cc(Cl)ccc4F)cc3)nc3[nH]nc(C)c23)CC1
1 nM	1 nM	Cc1n[nH]c2nc(-c3ccc(NS(=O)(=O)c4cc(Cl)ccc4F)cc3)nc(OC3CCNCC3F)c12 (stereo unspecified)
–	963 nM	O=C(NCc1cc[nH]n1)c1cc(-c2ccc(NS(=O)(=O)c3cccc(Cl)c3Cl)cc2)nc2[nH]ncc12
